Data set [1] concerns Mus musculus. Description: (§1) In vivo analgesic activity evaluated by using acetic acid writhing test in mice administered subcutaneously at a dose of 2 mg/kg. It is filed as functional. Conditions: sc, route subcutaneous. In general terms: In writhing tests, fewer writhes than in controls are read as antinociception.
Data set [2] can be described thus: Toxicity in mice administered subcutaneously. Conditions: mouse, in vivo, sc.
For data set [3], the system named is Mus musculus. The data set is described as §1. It counts as functional. The settings on record: sc, route subcutaneous. The source holds these as a separate data set.
The subject of data set [4] is Mus musculus. Description: (§2) In vivo analgesic activity evaluated by using acetic acid writhing test in mice administered subcutaneously at a dose of 10 mg/kg. Conditions: sc, route subcutaneous. It is filed as functional.
Data set [5] concerns Mus musculus. Description: (§3) In vivo analgesic activity evaluated by using acetic acid writhing test in mice administered subcutaneously at a dose of 5 mg/kg. It is filed as functional. The settings on record: sc, route subcutaneous.
The subject of data set [6] is Mus musculus. The description is as §2. It is filed as functional. Conditions: sc, route subcutaneous. The source holds these as a separate data set.
Data set [7] deals with Mus musculus. Described as §3. It is filed as functional. Conditions: sc, route subcutaneous. The source holds these as a separate data set.
Data set [8] deals with Mus musculus. Description: In vivo analgesic activity evaluated by using acetic acid writhing test in mice administered subcutaneously at a dose of 20 mg/kg. It is filed as functional. The settings on record: sc, route subcutaneous.
Data set [9] concerns Mus musculus. Description: (§4) In vivo analgesic activity evaluated by using acetic acid writhing test in mice administered subcutaneously at a dose of 0.2 mg/kg. It counts as functional. The settings on record: sc, route subcutaneous.
Data set [10] deals with Mus musculus. The data set is described as §4. It is filed as functional. Conditions: sc, route subcutaneous. This is another data set of the same source.
Data set [11] concerns Mus musculus. Description: In vivo analgesic activity evaluated by using acetic acid writhing test in mice administered subcutaneously at a dose of […]. It counts as functional. Conditions: sc, dose 2.5 mg/kg, route subcutaneous.
For data set [12], the species on record is Mus musculus. Description: […]. It counts as functional. Conditions: sc, route subcutaneous.
Data set [13] deals with Mus musculus. Description: In vivo analgesic activity evaluated by using acetic acid writhing test in mice administered subcutaneously at a dose of 0.05 mg/kg. It counts as functional. The settings on record: sc, route subcutaneous.
Data set [14] has as its system Mus musculus. Description: (§5) In vivo analgesic activity evaluated by using acetic acid writhing test in mice administered subcutaneously at a dose of 0.02 mg/kg. It counts as functional. Conditions: sc, route subcutaneous.
Data set [15] has as its system Mus musculus. Described as §5. It counts as functional. Conditions: sc, route subcutaneous. This is another data set of the same source.

These results are taken from ChEMBL document CHEMBL1136387, “Unique spirocyclopiperazinium salt. Part 2: synthesis and structure-activity relationship of dispirocyclopiperazinium salts as analgesics” (Bioorg Med Chem Lett, 2003).

For `O=C(CCCC(=O)N1CC[N+]2(CCCC2)CC1)N1CC[N+]2(CCCC2)CC1.[Br-].[Br-]`, the values for the inhibition in vivo at 2 mg/kg in the data set on Mus musculus [1] and with Mus musculus [3] were 0% and 67.4%, respectively. In data set [2], this molecule yielded a Death dose of 20 mg/kg.

For `C(CN1CC[N+]2(CCCC2)CC1)CN1CC[N+]2(CCCC2)CC1`, the values for the inhibition in vivo at 10 mg/kg in the data set on Mus musculus [4] and in the data set with Mus musculus [6] were 96% and 4.7%, respectively. For the same molecule, the inhibition in vivo at 5 mg/kg with Mus musculus [5] was 45.5%; in the data set on Mus musculus [7], 0%.

As to `CCOC(CN1CC[N+]2(CCCC2)CC1)CN1CC[N+]2(CCCC2)CC1`, at 20 mg/kg the inhibition in vivo with Mus musculus [8] was 90%. In the data set on Mus musculus [4], this molecule came in with an inhibition in vivo at 10 mg/kg of 46%. Also, at 5 mg/kg the inhibition in vivo in the data set with Mus musculus [5] was 34%.

On to `CCCCCCCCCCCCOC(CN1CC[N+]2(CCCC2)CC1)CN1CC[N+]2(CCCC2)CC1`, for which 20 mg/kg produced 18% inhibition in vivo with Mus musculus [8].

`C(CCCCN1CC[N+]2(CCCC2)CC1)CCCN1CC[N+]2(CCCC2)CC1`: the inhibition in vivo at 2 mg/kg was found to be 0% in the data set with Mus musculus [1] and 98.6% in the data set with Mus musculus [3].

As to `C(CCCCCN1CC[N+]2(CCCC2)CC1)CCCCN1CC[N+]2(CCCC2)CC1`, the inhibition in vivo at 2 mg/kg with Mus musculus [1] came out at 0%; in the data set on Mus musculus [3] it was 84.6%.

As to `O=C(CCCCC(=O)N1CC[N+]2(CCCC2)CC1)N1CC[N+]2(CCCC2)CC1.[Br-].[Br-]`, the inhibition in vivo at 0.2 mg/kg came to 70.4% with Mus musculus [9] and 8.1% in the data set on Mus musculus [10]. Also, the Death dose in data set [2] stood at 2 mg/kg.

Consider `CN1CCN(C(=O)CCCCC(=O)N2CCN(C)CC2)CC1`, for which, in the data set with Mus musculus [4], 10 mg/kg produced 10.9% inhibition in vivo.

`O=C(CCC(=O)N1CC[N+]2(CCCC2)CC1)N1CC[N+]2(CCCC2)CC1.[Br-].[Br-]`: the inhibition in vivo at 2 mg/kg came out at 0% in the data set with Mus musculus [1] and 47.7% with Mus musculus [3]. Further, the Death dose in data set [2] amounted to 20 mg/kg.

Consider `CCCCCCOC(CN1CC[N+]2(CCCC2)CC1)CN1CC[N+]2(CCCC2)CC1`, for which testing at 20 mg/kg in the data set on Mus musculus [8] gave an inhibition in vivo of 100%. The molecule also showed an inhibition in vivo at 10 mg/kg with Mus musculus [4] of 91%. In addition, 5 mg/kg produced 61% inhibition in vivo with Mus musculus [5]. This molecule also showed an inhibition in vivo at […] in the data set on Mus musculus [11] of 49%.

On to `CCCCCCCCCCCCCCCCCCOC(CN1CC[N+]2(CCCC2)CC1)CN1CC[N+]2(CCCC2)CC1`, for which the inhibition in vivo at 20 mg/kg in the data set filed under Mus musculus [12] stood at 24%.

In the data set on Mus musculus [13], `C[N+]1(C)CCN(C(=O)CCCCC(=O)N2CC[N+](C)(C)CC2)CC1` had an inhibition in vivo at 0.05 mg/kg of 60.1%.

On to `O=C(CCCCC(=O)N1CCNCC1)N1CCNCC1`, for which the inhibition in vivo at 5 mg/kg in the data set with Mus musculus [5] was 34.5%.

With `C(CCCN1CC[N+]2(CCCC2)CC1)CCN1CC[N+]2(CCCC2)CC1`, the inhibition in vivo at 2 mg/kg came out at 56.6% with Mus musculus [1] and 72.4% in the data set on Mus musculus [3].

Turning to `O=C(CCCCCC(=O)N1CC[N+]2(CCCC2)CC1)N1CC[N+]2(CCCC2)CC1.[Br-].[Br-]`, the inhibition in vivo at 0.02 mg/kg in the data set with Mus musculus [14] and with Mus musculus [15] was 0% throughout. Further, the Death dose in [2] is 0.2 mg/kg.

On to `O=C(CCCCCCC(=O)N1CC[N+]2(CCCC2)CC1)N1CC[N+]2(CCCC2)CC1.[Br-].[Br-]`, for which the inhibition in vivo at 0.02 mg/kg with Mus musculus [14] is 0%; with Mus musculus [15], 27.5%. Moreover, in data set [2], the Death dose was found to be 0.2 mg/kg.

Take `O=C(CC(=O)N1CC[N+]2(CCCC2)CC1)N1CC[N+]2(CCCC2)CC1.[Br-].[Br-]`: the inhibition in vivo at 2 mg/kg with Mus musculus [1] and in the data set with Mus musculus [3] was 0% in each case. Besides, in [2], the Death dose is 40 mg/kg.

The inhibition in vivo is the change of the read-out against control, counted positive when it falls.
